The source of these data is ChEMBL document CHEMBL6103552, “Identification of peptide-based hepatitis B virus capsid inhibitors based on the viral core protein” (Bioorg Med Chem Lett, 2025).

The structures appear in SMILES notation. Calls of active or inactive are those of the source. The rule behind the calls is not given here. Residues, ends and D or L forms follow the SMILES beside them.

The target of this assay is Core antigen (Hepatitis B virus) (UniProt Q03732). Put plainly: Inhibition of Hepatitis B virus capsid formation at 100 uM treated during cell-free wild type HBV Cp synthesis using wheat germ lysates and HBV Cp RNA by Native capsid assay based western blot analysis. In kind it is subcellular. For orientation: In western blotting, separated proteins are transferred to a membrane and probed.
Chain of Core antigen (Hepatitis B virus) (Q03732 as listed by the source): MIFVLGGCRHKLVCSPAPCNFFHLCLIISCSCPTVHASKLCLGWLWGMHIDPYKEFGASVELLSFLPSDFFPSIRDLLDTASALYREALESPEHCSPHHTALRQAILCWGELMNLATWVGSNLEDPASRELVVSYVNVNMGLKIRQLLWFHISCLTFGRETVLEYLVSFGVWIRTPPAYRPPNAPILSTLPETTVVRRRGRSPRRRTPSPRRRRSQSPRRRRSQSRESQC

As for `CC(C)C[C@H](NC(=O)[C@H](CCC(=O)O)NC(=O)[C@H](CCCNC(=N)N)NC(=O)[C@H](CO)NC(=O)[C@H](C)NC(=O)[C@@H]1CCCN1C(=O)[C@H](CC(=O)O)NC(=O)[C@H](CCC(=O)O)NC(=O)[C@@H](N)CC(C)C)C(=O)N[C@H](C(=O)N[C@H](C(=O)N[C@@H](CO)C(=O)N[C@@H](Cc1ccc(O)cc1)C(=O)N[C@H](C(=O)N[C@@H](CC(N)=O)C(N)=O)C(C)C)C(C)C)C(C)C`, the inhibition entry is “inactive”.

With `CC(C)C[C@H](NC(=O)[C@H](CC(N)=O)NC(=O)[C@H](CO)NC(=O)CNC(=O)[C@@H](NC(=O)[C@@H](N)Cc1c[nH]c2ccccc12)C(C)C)C(=O)N[C@@H](CCC(=O)O)C(=O)N[C@@H](CC(=O)O)C(=O)N1CCC[C@H]1C(=O)N[C@@H](C)C(=O)N[C@@H](CO)C(=O)N[C@@H](CCCNC(=N)N)C(=O)N[C@@H](CCC(=O)O)C(=O)N[C@@H](CC(C)C)C(=O)N[C@H](C(N)=O)C(C)C`, the inhibition result was “inactive”.

As to `CC(C)C[C@H](NC(=O)[C@H](C)NC(=O)[C@@H](NC(=O)[C@H](Cc1c[nH]cn1)NC(=O)[C@H](Cc1c[nH]cn1)NC(=O)[C@@H]1CCCN1C(=O)[C@H](CO)NC(=O)[C@H](CS)NC(=O)[C@H](Cc1c[nH]cn1)NC(=O)[C@H](CCC(=O)O)NC(=O)[C@@H]1CCCN1C(=O)[C@H](CO)NC(=O)[C@H](CCC(=O)O)NC(=O)[C@H](CC(C)C)NC(=O)[C@H](C)N)[C@@H](C)O)C(N)=O` (H-ALESPEHCSPHHTAL-NH2), the inhibition entry is “inactive”.

Regarding `CC[C@H](C)[C@H](NC(=O)[C@H](CO)NC(=O)[C@@H]1CCCN1C(=O)[C@H](Cc1ccccc1)NC(=O)[C@H](Cc1ccccc1)NC(=O)[C@H](CC(=O)O)NC(=O)[C@H](CO)NC(=O)[C@@H]1CCCN1C(=O)[C@H](CC(C)C)NC(=O)[C@H](Cc1ccccc1)NC(=O)[C@H](CO)NC(=O)[C@H](CC(C)C)NC(C)=O)C(=O)N[C@@H](CCCNC(=N)N)C(=O)N[C@@H](CC(=O)O)C(=O)N[C@@H](CC(C)C)C(N)=O`, the inhibition entry was “inactive”.

Take `CC(=O)N[C@@H](CC(C)C)C(=O)N[C@@H](CC(=O)O)C(=O)N[C@H](C(=O)N[C@@H](C)C(=O)N[C@@H](CO)C(=O)N[C@@H](C)C(=O)N[C@@H](CC(C)C)C(=O)N[C@@H](Cc1ccc(O)cc1)C(=O)N[C@@H](CCCNC(=N)N)C(=O)N[C@@H](CCC(=O)O)C(=O)N[C@@H](C)C(=O)N[C@@H](CC(C)C)C(=O)N[C@@H](CCC(=O)O)C(=O)N[C@@H](CO)C(=O)N1CCC[C@H]1C(N)=O)[C@@H](C)O` (Ac-LDTASALYREALESP-NH2): the inhibition entry is “inactive”.

In the case of `CC[C@H](C)[C@H](NC(=O)[C@H](CO)NC(=O)[C@@H]1CCCN1C(=O)[C@H](Cc1ccccc1)NC(=O)[C@H](Cc1ccccc1)NC(=O)[C@H](CC(=O)O)NC(=O)[C@@H](N)CO)C(=O)N[C@@H](CCCNC(=N)N)C(=O)N[C@@H](CC(=O)O)C(=O)N[C@@H](CC(C)C)C(=O)N[C@@H](CC(C)C)C(=O)N[C@@H](CC(=O)O)C(=O)N[C@H](C(=O)N[C@@H](C)C(=O)N[C@@H](CO)C(N)=O)[C@@H](C)O`, the inhibition entry is “inactive”.

On to `CC[C@H](C)[C@H](NC(=O)[C@H](Cc1c[nH]cn1)NC(=O)[C@H](Cc1ccccc1)NC(=O)[C@H](Cc1c[nH]c2ccccc12)NC(=O)[C@H](CC(C)C)NC(=O)[C@H](CC(C)C)NC(=O)[C@H](CCC(N)=O)NC(=O)[C@H](CCCNC(=N)N)NC(=O)[C@H](Cc1ccccc1)NC(=O)[C@H](CCCCN)NC(=O)[C@H](CC(C)C)NC(=O)CNC(=O)[C@H](CCSC)NC(=O)[C@H](CC(N)=O)NC(=O)[C@@H](N)C(C)C)C(N)=O`, for which the inhibition entry is “inactive”.

For `CC(=O)N1CCC[C@H]1C(=O)N[C@@H](CCCNC(=N)N)C(=O)N[C@@H](CCCNC(=N)N)C(=O)N[C@@H](CCCNC(=N)N)C(=O)N[C@H](C(=O)N1CCC[C@H]1C(=O)N[C@@H](CO)C(=O)N1CCC[C@H]1C(=O)N[C@@H](CCCNC(=N)N)C(=O)N[C@@H](CCCNC(=N)N)C(=O)N[C@@H](CCCNC(=N)N)C(=O)N[C@@H](CCCNC(=N)N)C(=O)N[C@@H](CO)C(=O)N[C@@H](CCC(N)=O)C(=O)N[C@@H](CO)C(N)=O)[C@@H](C)O` (Ac-PRRRTPSPRRRRSQS-NH2), the inhibition result is “inactive”.

`CC[C@H](C)[C@H](NC(=O)[C@H](CO)NC(=O)[C@@H]1CCCN1C(=O)[C@H](Cc1ccccc1)NC(=O)[C@H](Cc1ccccc1)NC(=O)[C@H](CC(=O)O)NC(=O)[C@H](CO)NC(=O)[C@@H]1CCCN1C(=O)[C@H](CC(C)C)NC(=O)[C@H](Cc1ccccc1)NC(=O)[C@H](CO)NC(=O)[C@@H](N)CC(C)C)C(=O)N[C@@H](CCCNC(=N)N)C(=O)N[C@@H](CC(=O)O)C(=O)N[C@@H](CC(C)C)C(N)=O`: the inhibition entry is “inactive”.

For the molecule `CSCC[C@H](NC(=O)[C@H](CC(C)C)NC(=O)[C@H](CCC(=O)O)NC(=O)CNC(=O)[C@H](Cc1c[nH]c2ccccc12)NC(=O)[C@H](CS)NC(C)=O)C(=O)N[C@@H](CC(N)=O)C(=O)N[C@@H](CC(C)C)C(=O)N[C@@H](C)C(=O)N[C@H](C(=O)N[C@@H](Cc1c[nH]c2ccccc12)C(=O)N[C@H](C(=O)NCC(=O)N[C@@H](CO)C(=O)N[C@@H](CC(N)=O)C(N)=O)C(C)C)[C@@H](C)O`, the inhibition result was “inactive”.

Turning to `CC[C@H](C)[C@H](NC(=O)[C@H](CO)NC(=O)[C@@H]1CCCN1C(=O)[C@H](Cc1ccccc1)NC(=O)[C@H](Cc1ccccc1)NC(=O)[C@H](CC(=O)O)NC(=O)[C@H](CO)NC(C)=O)C(=O)N[C@@H](CCCNC(=N)N)C(=O)N[C@@H](CC(=O)O)C(=O)N[C@@H](CC(C)C)C(=O)N[C@@H](CC(C)C)C(=O)N[C@@H](CC(=O)O)C(=O)N[C@H](C(=O)N[C@@H](C)C(=O)N[C@@H](CO)C(N)=O)[C@@H](C)O`, the inhibition entry is “inactive”.

For `N=C(N)NCCC[C@H](NC(=O)[C@H](CO)NC(=O)[C@H](CCC(N)=O)NC(=O)[C@H](CO)NC(=O)[C@H](CCCNC(=N)N)NC(=O)[C@H](CCCNC(=N)N)NC(=O)[C@H](CCCNC(=N)N)NC(=O)[C@H](CCCNC(=N)N)NC(=O)[C@@H]1CCCN1C(=O)[C@H](CO)NC(=O)[C@@H](N)CCC(N)=O)C(=O)N[C@@H](CCC(=O)O)C(=O)N[C@@H](CO)C(=O)N[C@@H](CCC(N)=O)C(=O)N[C@@H](CS)C(N)=O` (H-QSPRRRRSQSRESQC-NH2), the inhibition result is “inactive”.

For the molecule `CC[C@H](C)[C@H](NC(=O)[C@@H]1CCCN1C(=O)[C@H](C)NC(=O)[C@@H](N)CC(N)=O)C(=O)N[C@@H](CC(C)C)C(=O)N[C@@H](CO)C(=O)N[C@H](C(=O)N[C@@H](CC(C)C)C(=O)N1CCC[C@H]1C(=O)N[C@@H](CCC(=O)O)C(=O)N[C@H](C(=O)N[C@H](C(=O)N[C@H](C(=O)N[C@H](C(=O)N[C@@H](CCCNC(=N)N)C(N)=O)C(C)C)C(C)C)[C@@H](C)O)[C@@H](C)O)[C@@H](C)O`, the inhibition result is “inactive”.

Regarding `CC(=O)N[C@@H](Cc1c[nH]c2ccccc12)C(=O)N[C@H](C(=O)NCC(=O)N[C@@H](CO)C(=O)N[C@@H](CC(N)=O)C(=O)N[C@@H](CC(C)C)C(=O)N[C@@H](CCC(=O)O)C(=O)N[C@@H](CC(=O)O)C(=O)N1CCC[C@H]1C(=O)N[C@@H](C)C(=O)N[C@@H](CO)C(=O)N[C@@H](CCCNC(=N)N)C(=O)N[C@@H](CCC(=O)O)C(=O)N[C@@H](CC(C)C)C(=O)N[C@H](C(N)=O)C(C)C)C(C)C`, the inhibition entry was “inactive”.

Turning to `CC(C)[C@H](NC(=O)[C@@H](NC(=O)[C@@H](NC(=O)[C@@H](N)[C@@H](C)O)[C@@H](C)O)C(C)C)C(=O)N[C@@H](CCCNC(=N)N)C(=O)N[C@@H](CCCNC(=N)N)C(=O)N[C@@H](CCCNC(=N)N)C(=O)NCC(=O)N[C@@H](CCCNC(=N)N)C(=O)N[C@@H](CO)C(=O)N1CCC[C@H]1C(=O)N[C@@H](CCCNC(=N)N)C(=O)N[C@@H](CCCNC(=N)N)C(=O)N[C@@H](CCCNC(=N)N)C(=O)N[C@H](C(N)=O)[C@@H](C)O` (H-TTVVRRRGRSPRRRT-NH2), the inhibition entry is “inactive”.

Take `N=C(N)NCCC[C@H](NC(=O)[C@H](CCCNC(=N)N)NC(=O)[C@H](CCCNC(=N)N)NC(=O)[C@H](CCCNC(=N)N)NC(=O)[C@@H]1CCCN1C(=O)[C@H](CO)NC(=O)[C@H](CCC(N)=O)NC(=O)[C@H](CO)NC(=O)[C@H](CCCNC(=N)N)NC(=O)[C@H](CCCNC(=N)N)NC(=O)[C@H](CCCNC(=N)N)NC(=O)[C@H](CCCNC(=N)N)NC(=O)[C@@H]1CCCN1C(=O)[C@H](CO)NC(=O)[C@@H]1CCCN1)C(N)=O` (H-PSPRRRRSQSPRRRR-NH2): the inhibition result was “inactive”.

On to `CSCC[C@H](N)C(=O)N[C@@H](CC(N)=O)C(=O)N[C@@H](CC(C)C)C(=O)N[C@@H](C)C(=O)N[C@H](C(=O)N[C@@H](Cc1c[nH]c2ccccc12)C(=O)N[C@H](C(=O)NCC(=O)N[C@@H](CO)C(=O)N[C@@H](CC(N)=O)C(=O)N[C@@H](CC(C)C)C(=O)N[C@@H](CCC(=O)O)C(=O)N[C@@H](CC(=O)O)C(=O)N1CCC[C@H]1C(=O)N[C@@H](C)C(N)=O)C(C)C)[C@@H](C)O`, for which the inhibition entry was “inactive”.

With `CC(C)C[C@H](NC(=O)[C@H](C)N)C(=O)N[C@@H](Cc1ccc(O)cc1)C(=O)N[C@@H](CCCNC(=N)N)C(=O)N[C@@H](CCC(=O)O)C(=O)N[C@@H](C)C(=O)N[C@@H](CC(C)C)C(=O)N[C@@H](CCC(=O)O)C(=O)N[C@@H](CO)C(=O)N1CCC[C@H]1C(=O)N[C@@H](CCC(=O)O)C(=O)N[C@@H](Cc1c[nH]cn1)C(=O)N[C@@H](CS)C(=O)N[C@@H](CO)C(=O)N1CCC[C@H]1C(N)=O` (H-ALYREALESPEHCSP-NH2), the inhibition entry was “inactive”.

For the molecule `CC(=O)N[C@H](C(=O)N[C@H](C(=O)N[C@H](C(=O)N[C@H](C(=O)N[C@@H](CCCNC(=N)N)C(=O)N[C@@H](CCCNC(=N)N)C(=O)N[C@@H](CCCNC(=N)N)C(=O)NCC(=O)N[C@@H](CCCNC(=N)N)C(=O)N[C@@H](CO)C(=O)N1CCC[C@H]1C(=O)N[C@@H](CCCNC(=N)N)C(=O)N[C@@H](CCCNC(=N)N)C(=O)N[C@@H](CCCNC(=N)N)C(=O)N[C@H](C(N)=O)[C@@H](C)O)C(C)C)C(C)C)[C@@H](C)O)[C@@H](C)O` (Ac-TTVVRRRGRSPRRRT-NH2), the inhibition entry was “inactive”.

For the molecule `CC[C@H](C)[C@H](NC(=O)[C@H](C)NC(=O)[C@H](CCC(N)=O)NC(=O)[C@@H]1CCCN1C(=O)[C@H](CC(C)C)NC(=O)[C@H](C)NC(=O)[C@@H](NC(=O)[C@H](Cc1c[nH]cn1)NC(=O)[C@H](Cc1c[nH]cn1)NC(=O)[C@@H]1CCCN1C(=O)[C@H](CO)NC(=O)[C@H](CS)NC(=O)[C@H](Cc1c[nH]cn1)NC(=O)[C@@H](N)CCC(=O)O)[C@@H](C)O)C(=O)N[C@@H](CC(C)C)C(N)=O` (H-EHCSPHHTALPQAIL-NH2), the inhibition result is “inactive”.
